Experimental data taken from US11931365B2, “Use of PPAR-delta agonists in the treatment of disease” (Reneo Pharmaceuticals, Inc., priority 2022, dated 2024).

How the values were obtained:
[1] = test system: PPARδ regulated genes (CPT1b, PGC-1α); experiment: In vivo expression of PPARδ regulated genes in muscle; conditions: mice muscle
[2] = test system: healthy male volunteers, leg immobilization; experiment: Phase 1 placebo-controlled study in healthy volunteers with single limb immobilization; assay type: in vivo, human; conditions: 100 mg twice daily for 28 days
Method: In a prior clinical trial in healthy volunteers, Compound I was administered at dose of 100 mg twice daily for 28 days in healthy volunteers during and after a single limb immobilization (see NCT01524406). The study was conducted to evaluate the impact of Compound I on the recovery of muscle atrophy from leg immobilization, and improvements in cross section area (CSA) and muscle strength parameters expected in patients treated with study drug compared to those given placebo.
This phase 1, randomized, parallel group, placebo-controlled study was conducted at 2 centers in the United States. Fifty participants were planned for enrollment, 25 per group; participants could be replaced upon sponsor approval.
Screening was conducted 28 days before study start; eligibility was reviewed again at prespecified times during the study. Ambulatory, non-smoking, healthy male volunteers 30 to 55 years of age with a Body Mass Index (BMI) from 18 to 30 kg/m2 were recruited for the study. Key exclusion criteria included abnormal laboratory values at screening, a recent history of body weight fluctuations, positive urine drug screens, drug dependency or illicit drug use, professional sport participation within 30 days of screening, donation of whole blood within 90 days of dosing, and donation of plasma within 30 days of dosing. Concomitant medications within 14 days of dosing were not allowed unless approved by the sponsor. Those who had enrolled in another clinical trial within 90 days or had previously received Compound II were not allowed to participate.
Participants were randomly assigned 1:1 to receive either Compound II (100 mg BID) or matching placebo for 28 days using a computer generated randomization schedule provided by the sponsor. The principal investigator, study center staff, and participants were blinded to treatment; the protocol was amended so that sponsor personnel were not blinded. This change was made to allow investigation of observations concerning adherence to the protocol, discussed further in the pharmacodynamic results. Compound II and placebo were provided as capsules identical in appearance, taken orally with 240 ml of water prior to meals. Study drug was administered at the study site on Days 1 (PM dose), 6 (AM dose), 13 (PM dose), and 14, 15, 16, 29 (AM doses). At all other times study drug was self-administered just before breakfast and dinner. Dates and times were recorded in a diary, with compliance determined from the diaries and capsule counts. Study drug supplies were packaged according to the randomization codes by a contract research organization. Each dispensed bottle was labeled with the randomization number. Individual capsules were re-dispensed from these bottles by the study site staff, maintaining the blind. The total study duration for each subject was 42 days. Participants stayed overnight from Day 1 and Days 13 to 16.
Standardized meals, beverages and snacks were provided during the domicile periods. On Day 1, participants were leg-immobilized using a knee brace with […] on the left leg to allow driving. Walking crutches were provided to prevent weight bearing on the immobilized leg. An accelerometer was issued at screening and was used to count the number of steps per day. Participants were to walk 4000 to 6000 steps each day for the duration of the leg immobilization period, and recorded accelerometer readings each evening before bedtime. The brace was removed on Day 14, and participants resumed normal physical activity gradually from Days 16 to 29. After stopping study drug on Day 29, participants were to resume regular daily activity gradually for another 2 weeks. Consumption of prescribed medications or over the counter products was prohibited from 14 days prior to dosing and throughout the study, with the exception of the treatment of an adverse event. Participants were not to consume alcohol or caffeine containing food and beverages 3 days before each study visit and domicile periods. […]

LXRα = LXRα (Homo sapiens, UniProt Q13133); experiment: Nuclear receptor activity
LXRα, sequence (Q13133 whole entry): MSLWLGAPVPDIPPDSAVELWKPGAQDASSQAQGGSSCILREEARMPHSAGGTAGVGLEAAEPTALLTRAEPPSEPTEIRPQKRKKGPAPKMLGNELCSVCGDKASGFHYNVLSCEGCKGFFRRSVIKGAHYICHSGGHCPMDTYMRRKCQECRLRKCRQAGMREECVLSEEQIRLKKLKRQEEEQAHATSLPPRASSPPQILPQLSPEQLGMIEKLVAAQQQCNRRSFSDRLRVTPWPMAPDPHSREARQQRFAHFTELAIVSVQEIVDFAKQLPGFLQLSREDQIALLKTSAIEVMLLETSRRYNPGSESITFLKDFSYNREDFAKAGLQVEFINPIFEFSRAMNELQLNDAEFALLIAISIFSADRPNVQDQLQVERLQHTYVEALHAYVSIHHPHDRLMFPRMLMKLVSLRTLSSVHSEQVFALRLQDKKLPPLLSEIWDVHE

[3] = test system: human retinoid X receptor (hRXR); experiment: Nuclear receptor activity

- activity on nuclear receptor LXRα (LXRα): did not show any
- hRXR activity [3]: did not show any
SMILES: Cc1cc(OC/C=C(/c2ccc(F)cc2)c2ccc(C#CCN3CCOCC3)cc2)ccc1OCC(=O)O [Compound I, (E)-2-(4-((3-(4-fluorophenyl)-3-(4-(3-morpholinoprop-1-yn-1-yl)phenyl)allyl)oxy)-2-methylphenoxy)acetic acid]
- expression patterns of PPARδ regulated genes (CPT1b, PGC-1α) [1]: altered the expression patterns
- expression of PPAR regulated target genes (ANGPTL4) and fatty acid metabolism genes (PDK4) in muscle biopsies [2]: significant increases
- mean knee extension strength from baseline vs placebo ([2]; Day 21): significant increase
